This test deals with T1, TLR4 (Mus musculus, UniProt Q9QUK6).
T1 construct: endogenous in cells; host or cells: RAW264.7 (murine macrophage cell line)
T1 sequence (Q9QUK6 26-835): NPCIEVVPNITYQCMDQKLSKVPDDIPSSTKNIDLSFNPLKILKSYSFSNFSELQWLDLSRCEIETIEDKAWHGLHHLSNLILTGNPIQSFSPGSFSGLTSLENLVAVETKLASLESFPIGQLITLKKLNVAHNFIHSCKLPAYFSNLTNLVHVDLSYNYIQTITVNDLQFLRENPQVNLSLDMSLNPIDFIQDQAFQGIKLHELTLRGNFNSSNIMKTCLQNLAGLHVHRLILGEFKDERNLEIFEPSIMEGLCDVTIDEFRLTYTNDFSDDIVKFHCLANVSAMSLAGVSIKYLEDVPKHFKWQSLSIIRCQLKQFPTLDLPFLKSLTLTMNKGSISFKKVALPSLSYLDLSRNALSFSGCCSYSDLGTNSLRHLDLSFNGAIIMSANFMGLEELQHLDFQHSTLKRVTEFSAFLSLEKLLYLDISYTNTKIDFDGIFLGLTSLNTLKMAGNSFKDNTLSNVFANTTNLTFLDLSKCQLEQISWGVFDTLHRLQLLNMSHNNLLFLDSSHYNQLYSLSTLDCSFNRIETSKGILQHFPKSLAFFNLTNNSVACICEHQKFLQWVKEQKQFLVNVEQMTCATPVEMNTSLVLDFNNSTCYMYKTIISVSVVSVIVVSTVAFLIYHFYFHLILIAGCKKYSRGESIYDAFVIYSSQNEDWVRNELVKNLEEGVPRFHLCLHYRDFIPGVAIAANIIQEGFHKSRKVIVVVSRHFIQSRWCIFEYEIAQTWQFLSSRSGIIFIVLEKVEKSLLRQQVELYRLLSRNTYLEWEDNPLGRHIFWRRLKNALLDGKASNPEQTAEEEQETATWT
T1 sequence (Q9JHF9 19-160 partner): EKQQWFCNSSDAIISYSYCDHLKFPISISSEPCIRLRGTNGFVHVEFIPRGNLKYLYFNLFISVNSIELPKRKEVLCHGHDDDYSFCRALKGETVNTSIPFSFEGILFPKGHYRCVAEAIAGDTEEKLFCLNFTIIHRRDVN
The test can be described thus: Inhibitory effect with respect to NO production (LPS/interferon γ-stimulated RAW264.7). Format: cell-based, murine. As to conditions: RAW264.7 cells, LPS 1.25 ng/mL and mouse interferon γ 0.2 ng/mL, nitrite ion in culture supernatant. As for the experimental part: The inhibitory effect on TLR4 was determined using the inhibition rate due to the test compound with respect to NO production as a result of addition of lipopolysaccharide (LPS) using murine macrophage cell line RAW264.7. The cells were adjusted to 2×10^6 cells/mL using RPM1-1640 culture medium (phenol red free) supplemented with 10% inactivated bovine fetal serum, and were plated on 384 well plate so as to contain 6×10^4 cells/30 μL per well. Thereafter the cells were cultured at 37° C. overnight under 5% CO2/95% air. The test compound dissolved in DMSO was diluted 200 times using RPM1-1640 culture medium and adjusted so as to form a compound concentration of 500 nM. The prepared test compound 10 μL (final concentration 100 nM) was added to the cells, and LPS (Sigma) and mouse interferon γ (Wako Pure Chemicals) were added in amounts of 10 μL so as to form final concentrations of 1.25 ng/mL and 0.2 ng/mL respectively. The cells were further cultured overnight, and then the nitrite ion (stable NO metabolite) concentration in the culture supernatant was measured as an index of NO production. The nitrite ion concentration was assayed by adding 10 μL of 20 μg/mL 2,3-diamino naphthalene (DAN) dissolved in 0.2N HCl to 20 μL culture supernatant, incubating at room temperature for ten minutes, and then adding 10 μL of 0.5N NaOH, and measuring the fluorescent value at 460 nm (excitation wavelength 355 nm) using an EnVision plate reader (Perkin Elmer). The NO production inhibition rate (%) was calculated using the value without the addition of stimulating agent as control of 100% inhibition, and the value without the addition of the compound as control of 0% inhibition.

For `CCOC(=O)C1=CC(O)CCC1S(=O)(=O)C1CCc2cccc(Cl)c21` (racemic) [Compound 4, Ethyl 6-((7-chloro-2,3-dihydro-1H-inden-1-yl)sulfonyl)-3-hydroxycyclohex-1-ene-1-carboxylate], under “0.1 µM”, the “NO production inhibitory effect at 100 nM (% inhibition)” value came out at 110 % inhibition.

Regarding `CCOC(=O)C1=CC(O)CCC1S(=O)(=O)C1CCc2cccc(Cl)c21` (racemic) [Compound 5, Ethyl 6-((7-chloro-2,3-dihydro-1H-inden-1-yl)sulfonyl)-3-hydroxycyclohex-1-ene-1-carboxylate], the “NO production inhibitory effect at 100 nM (% inhibition)” value (0.1 µM) came to 100 % inhibition.

For the compound `CCOC(=O)C1=CC2(CCC1S(=O)(=O)C1CCCc3cccc(Cl)c31)O[C@H](CO)[C@@H](CO)O2` (single isomer, unassigned) [Compound 16], under “0.1 µM”, the “NO production inhibitory effect at 100 nM (% inhibition)” value was 108 % inhibition.

Consider `CCOC(=O)C1=CC2(CCC1S(=O)(=O)C1CCCc3cccc(Cl)c31)O[C@H](CO)[C@@H](CO)O2` (single isomer, unassigned) [Compound 17], for which the “NO production inhibitory effect at 100 nM (% inhibition)” value (0.1 µM) came out at 86 % inhibition.

For `CCOC(=O)C1=CCOCC1S(=O)(=O)C1CCc2cccc(Cl)c21` (single isomer, unassigned) [Compound 20], the “NO production inhibitory effect at 100 nM (% inhibition)” value stood at 104 % inhibition.

Take `CCOC(=O)C1=CCCCC1S(=O)(=O)C1CCc2c(Cl)cccc21` (stereo not drawn) [Compound 1, Ethyl 6-((4-chloro-2,3-dihydro-1H-inden-1-yl)sulfonyl)cyclohex-1-ene-1-carboxylate]: the “NO production inhibitory effect at 100 nM (% inhibition)” value came to 96 % inhibition.

Regarding `CCOC(=O)C1=CC2(CCC1S(=O)(=O)C1CCc3c(Cl)cccc31)O[C@H](CO)[C@@H](CO)O2` (stereo partly drawn) [Compound 2, Ethyl (2R,3R)-8-((4-chloro-2,3-dihydro-1H-inden-1-yl)sulfonyl)-2,3-bis(hydroxymethyl)-1,4-dioxaspiro[4.5]dec-6-ene-7-carboxylate], the “NO production inhibitory effect at 100 nM (% inhibition)” value was 99 % inhibition.

As for `CCOC(=O)C1=CC2(CCC1S(=O)(=O)C1CCc3c(Cl)cccc31)O[C@@H](CO)[C@H](CO)O2` (stereo partly drawn) [Compound 3, Ethyl (2S,3S)-8-((4-chloro-2,3-dihydro-1H-inden-1-yl)sulfonyl)-2,3-bis(hydroxymethyl)-1,4-dioxaspiro[4.5]dec-6-ene-7-carboxylate], the “NO production inhibitory effect at 100 nM (% inhibition)” value was determined as 110 % inhibition.

Take `CCOC(=O)C1=CC2(CC[C@H]1S(=O)(=O)[C@H]1CCc3cccc(Cl)c31)O[C@@H](CO)[C@H](CO)O2` [Compound 7, Ethyl (2S,3S,8R)-8-(((1S)-7-chloro-2,3-dihydro-1H-inden-1-yl)sulfonyl)-2,3-bis(hydroxymethyl)-1,4-dioxaspiro[4.5]dec-6-ene-7-carboxylate]: the “NO production inhibitory effect at 100 nM (% inhibition)” value came out at 105 % inhibition.

For the compound `CC1(COC(=O)C2=CC3(CCC2S(=O)(=O)C2CCc4cccc(Cl)c42)O[C@@H](CO)[C@H](CO)O3)CC1` (stereo partly drawn) [Compound 8, (1-methylcyclopropyl)methyl (2S,3S)-8-((7-chloro-2,3-dihydro-1H-inden-1-yl)sulfonyl)-2,3-bis(hydroxymethyl)-1,4-dioxaspiro[4.5]dec-6-ene-7-carboxylate], the “NO production inhibitory effect at 100 nM (% inhibition)” value was 99 % inhibition.

In the case of `CCOC(=O)C1=CC2(CCC1S(=O)(=O)C1CCc3c(F)ccc(Cl)c31)O[C@@H](CO)[C@H](CO)O2` (stereo partly drawn) [Compound 9, Ethyl (2S, 3S)-8-((7-chloro-4-fluoro-2,3-dihydro-1H-inden-1-yl)sulfonyl)-2,3-bis(hydroxymethyl)-1,4-dioxaspiro[4.5]dec-6-ene-7-carboxylate], the “NO production inhibitory effect at 100 nM (% inhibition)” value is given as 110 % inhibition.

In the case of `CCOC(=O)C1=CC2(CCC1S(=O)(=O)C1CCc3ccc(F)c(Cl)c31)O[C@@H](CO)[C@H](CO)O2` (stereo partly drawn) [Compound 10, Ethyl (2S, 3S)-8-((7-chloro-6-fluoro-2,3-dihydro-1H-inden-1-yl)sulfonyl)-2,3-bis(hydroxymethyl)-1,3-dioxaspiro[4.5]dec-6-ene-7-carboxylate], the “NO production inhibitory effect at 100 nM (% inhibition)” value was found to be 100 % inhibition.

As for `CCOC(=O)C1=CC2(CCC1S(=O)(=O)C1CCc3cc(F)cc(Br)c31)O[C@@H](CO)[C@H](CO)O2` (stereo partly drawn) [Compound 11, Ethyl (2S, 3S)-8-((7-bromo-5-fluoro-2,3-dihydro-1H-inden-1-yl)sulfonyl)-2,3-bis(hydroxymethyl)-1,4-dioxaspiro[4.5]dec-6-ene-7-carboxylate], the “NO production inhibitory effect at 100 nM (% inhibition)” value amounted to 110 % inhibition.

For the compound `CCOC(=O)C1=CC2(CCC1S(=O)(=O)C1CCc3cccc(Br)c31)O[C@@H](CO)[C@H](CO)O2` (stereo partly drawn) [Compound 12, Ethyl (2S, 3S)-8-((7-bromo-2,3-dihydro-1H-inden-1-yl)sulfonyl)-2,3-bis(hydroxymethyl)-1,4-dioxaspiro[4.5]dec-6-ene-7-carboxylate], the “NO production inhibitory effect at 100 nM (% inhibition)” value is reported as 100 % inhibition.

On to `CCOC(=O)C1=CC2(CCC1S(=O)(=O)C1CCc3cccc(C)c31)O[C@@H](CO)[C@H](CO)O2` (stereo partly drawn) [Compound 13, Ethyl (2S, 3S)-2,3-bis(hydroxymethyl)-8-((7-methyl-2,3-dihydro-1H-inden-1-yl)sulfonyl)-1,4-dioxaspiro[4.5]dec-6-ene-7-carboxylate], for which the “NO production inhibitory effect at 100 nM (% inhibition)” value stood at 100 % inhibition.

Consider `CCOC(=O)C1=CC2(CC[C@H]1S(=O)(=O)[C@H]1CCc3cc(F)cc(Cl)c31)O[C@@H](CO)[C@H](CO)O2` [Compound 15, Ethyl (2S,3S,8R)-8-(((1S)-7-chloro-5-fluoro-2,3-dihydro-1H-inden-1-yl)sulfonyl)-2,3-bis(hydroxymethyl)-1,4-dioxaspiro[4.5]dec-6-ene-7-carboxylate], for which the “NO production inhibitory effect at 100 nM (% inhibition)” value is 106 % inhibition.

`CCOC(=O)C1=CCCC[C@H]1S(=O)(=O)[C@H]1CCc2cccc(Cl)c21` [Compound 18, Ethyl (6R)-6-(((1S)-7-chloro-2,3-dihydro-1H-inden-1-yl)sulfonyl)cyclohex-1-ene-1-carboxylate]: the “NO production inhibitory effect at 100 nM (% inhibition)” value came to 104 % inhibition.

For the compound `CCOC(=O)C1=CC2(CC[C@H]1S(=O)(=O)[C@H]1CCCc3cccc(Cl)c31)O[C@@H](CO)[C@H](CO)O2` [Compound 19, Ethyl (2S,3S,8R)-8-(((1S)-8-chloro-1,2,3,4-tetrahydronaphthalen-1-yl)sulfonyl)-2,3-bis(hydroxymethyl)-1,4-dioxaspiro[4.5]dec-6-ene-7-carboxylate], the “NO production inhibitory effect at 100 nM (% inhibition)” value stood at 107 % inhibition.

(Values after patent publication US9828357B2, “Cyclic compounds” (Takeda Pharmaceutical Company Limited, priority 2015, dated 2017).)
